According to patent publication US4207311A, “Peptides having analgesic and thermoregulative properties” (The Salk Institute for Biological Studies, priority 1977, dated 1980):
Square brackets hold non-standard residues; d marks the D form. Peptide text beside a SMILES is read from it. pGlu = O=C1CC[C@@H](C(=O)O)N1

System: cold exposed rat
Assay: hypothermia in cold exposed rats after intracisternal injection (rectal/core temperature)
Type: in vivo
Procedure: Male Sprague-Dawley-CV rats weighing 180-200 grams were housed in temperature and humidity controlled quarters. The rats were fed a standard rat food ration and tap water ad libitum. After being anesthetized with ether, peptides were injected into the cisterna magna of each rat. Ten microliters of a peptide solution containing 1-1000 nanograms of the peptide were injected. Immediately following the injections, the animals were transferred to a cold room maintained at 4° C. Rectal temperatures were recorded with a thermo probe at 30 minute intervals following injection. All experiments were carried out in a randomized block design. Following analyses of variance, differences between the effect of the various peptides were determined. The peptides were dissolved in a buffer composed of 126 mM, NaCl, 6 mM KCl, 1 mM NaH2 PO4, 0.88 mM MgSo4, 1.45 mM CaCl2, and 25 mM HEPES pH 7.2.
Other peptides isolated from anuran skin, i.e., litorin, ranatensin and alytesin, are approximately 1%, 10% and 100% respectively as potent as the peptide described above to lower body temperature of the cold exposed rat.

Row | SMILES | potency relative to the peptide of Example I to lower body temperature (cold exposed rat) | potency relative to Neurotensin to produce hypothermia (cold exposed rat (4° C.), graded doses, core temperature 60 minutes following administration)
1 | CSCC[C@H](NC(=O)[C@H](Cc1ccccc1)NC(=O)[C@H](Cc1c[nH]cn1)NC(=O)CNC(=O)[C@@H](NC(=O)[C@H](C)NC(=O)[C@H](Cc1c[nH]c2ccccc12)NC(=O)[C@H](CCC(N)=O)NC(=O)[C@@H]1CCCN1C(=O)[C@@H](NC(=O)[C@@H]1CCC(=O)N1)C(C)C)C(C)C)C(N)=O [ranatensin] ([pGlu]VPQWAVGHFM-NH2) | ~10% | –
2 | CSCC[C@H](NC(=O)[C@H](CC(C)C)NC(=O)[C@H](Cc1cnc[nH]1)NC(=O)CNC(=O)[C@@H](NC(=O)[C@H](C)NC(=O)[C@H](Cc1c[nH]c2ccccc12)NC(=O)[C@H](CCC(N)=O)NC(=O)[C@H](CC(N)=O)NC(=O)CNC(=O)[C@H](CC(C)C)NC(=O)[C@H](CCCN=C(N)N)NC(=O)[C@H](CCC(N)=O)NC(=O)[C@@H]1CCC(=O)N1)C(C)C)C(N)=O [the peptide of the invention] | – | at least 10^4 times
